This is an account of results in publication PMC11123841, “Discovery and Synthesis of Hydroxy-L-Proline Blockers of the Neutral Amino Acid Transporters SLC1A4 (ASCT1) and SLC1A5 (ASCT2)” (Molecules, 2024).

Values joined by “and” are separate entries in the source; they are usually repeats but may differ in a detail not shown here. Identical values can stand only once. Like-named read-outs stand apart in the source and are kept apart here.

For data set [1], the target named is T1, SLC1A5 (Mus musculus, UniProt P51912).
T1 construct: expressed in transfected cells; host or cells: Xenopus laevis oocytes (cRNA injection)
T1 sequence (P51912 1-553): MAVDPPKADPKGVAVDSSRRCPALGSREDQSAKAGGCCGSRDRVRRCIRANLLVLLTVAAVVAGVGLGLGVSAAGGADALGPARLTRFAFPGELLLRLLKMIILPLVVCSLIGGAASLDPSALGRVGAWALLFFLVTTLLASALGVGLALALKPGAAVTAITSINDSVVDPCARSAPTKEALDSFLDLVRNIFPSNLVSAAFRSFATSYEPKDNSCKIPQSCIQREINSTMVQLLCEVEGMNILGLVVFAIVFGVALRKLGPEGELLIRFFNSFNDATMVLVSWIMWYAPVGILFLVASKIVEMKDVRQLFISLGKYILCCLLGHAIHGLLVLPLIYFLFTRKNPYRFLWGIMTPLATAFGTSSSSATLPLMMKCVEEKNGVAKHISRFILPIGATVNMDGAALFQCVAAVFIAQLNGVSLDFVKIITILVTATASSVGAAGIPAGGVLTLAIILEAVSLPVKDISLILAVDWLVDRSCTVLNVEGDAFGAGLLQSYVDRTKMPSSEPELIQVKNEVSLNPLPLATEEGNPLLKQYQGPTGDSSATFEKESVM
The experiment in a line: [3H]L-Gln radiolabeled uptake competition in oocytes. The note with it: 10 µM [3H]L-Gln uptake in SLC1A5; read-out: IC50, block of [3H]L-Gln uptake. The data set is classed as cell-based. Here is the method: (§1) Uptake was halted by washing 3 times with 4 °C ND96 buffer. Oocytes were then lysed in 0.1% Triton X-100, and radioactivity was counted via liquid scintillation. Dose response curves were generated by fitting fractional inhibition (I) to the expression I = Imax × [inhibitor]/([inhibitor] + IC50).
(§2) (A) SLC1A4 dose response curves for substrate activated anion currents using two-electrode voltage clamp of Xenopus lavies oocytes (−30 mV). […] (B) SLC1A5 dose response curve for substrate activated anion currents using two-electrode voltage clamp (−30 mV). […] Extracellular solutions contained 50 mM NaSCN.

Data set [2] concerns the target T2, mSLC1A5 (Mus musculus, UniProt P51912).
T2 construct: expressed in transfected cells; host or cells: Xenopus laevis oocytes (cRNA injection)
T2 sequence (P51912 1-553): T1 sequence (P51912 1-553)
Kind of data set: TEVC block of anion leak conductance in oocytes. The class given is cell-based. The source says:
(§3) The currents induced by substrates and blocked by hydroxyproline analogs shared a reversal potential shown in the current/voltage relationship consistent with the conductance originating from the same ion pore (Figure 3, inset). […] The observed dose–response relationships are independent of competing substrates, and thus provide a direct measure of the equilibrium inhibition constant (Ki). Each synthetic hydroxyproline analog was functionally assessed for its capacity to inhibit SLC1A4 and SLC1A5 leak currents with affinities reported in Table 1 as determined or approximated Ki.
(§4) Two-electrode voltage clamp (TEVC) transporter currents were recorded with a GeneClamp 500 amplifier and Digidata 1320A analog–digital interface (Molecular Devices, San Jose, CA, USA). Electrodes (0.2–1.0 MΩ) were filled with 3M KCl and the recording chamber was grounded with an agar bridge. Data were acquired with Axograph (v1.7.6) and LabChart (v7) and analyzed with Kaleidagraph software (v4.1) (Synergy, Reading, PA, USA). Uncoupled anion currents associated with the transport of substrate and block of SLC1A4 or SLC1A5 mediated leak conductance were recorded in the presence of Ringer with 50% substitution of NaCl by NaSCN to amplify the non-transported anion conductance.
(§5) Figure 3 AHPCs block a leak current in SLC1A4 and SLC1A5. […] Inset (A): The current and voltage relationship for SLC1A4 currents activated by Ala or blocked by 14b are determined by subtracting voltage jumps in buffer.

Data set [3] deals with T3, SLC1A4 (Homo sapiens, UniProt P43007).
T3 construct: expressed in transfected cells; host or cells: Xenopus laevis oocytes (cRNA injection)
T3 sequence (P43007 1-532): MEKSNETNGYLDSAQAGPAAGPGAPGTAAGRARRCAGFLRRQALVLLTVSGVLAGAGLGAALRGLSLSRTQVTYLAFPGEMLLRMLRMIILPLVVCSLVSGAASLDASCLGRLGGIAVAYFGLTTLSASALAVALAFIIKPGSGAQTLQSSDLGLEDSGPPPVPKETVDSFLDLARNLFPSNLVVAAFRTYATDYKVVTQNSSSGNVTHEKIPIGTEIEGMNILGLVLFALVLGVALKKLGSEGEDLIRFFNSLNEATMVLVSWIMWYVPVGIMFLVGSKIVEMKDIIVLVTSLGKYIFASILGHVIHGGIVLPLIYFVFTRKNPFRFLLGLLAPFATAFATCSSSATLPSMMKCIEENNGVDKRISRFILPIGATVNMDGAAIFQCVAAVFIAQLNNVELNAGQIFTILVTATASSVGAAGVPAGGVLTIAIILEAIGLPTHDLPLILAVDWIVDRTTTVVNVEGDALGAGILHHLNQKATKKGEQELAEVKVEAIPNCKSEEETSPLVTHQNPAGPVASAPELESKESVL
The experiment in a line: TEVC block of anion leak conductance in oocytes. The class given is cell-based.
Excerpt: as §3, §4, §5

Data set [4] has as its target T1, SLC1A5. Kind of data set: [3H]L-alanine heteroexchange (trans-stimulation) in preloaded oocytes. The data set is classed as cell-based. The settings on record: 3 µM BPOHP, 1 mM L-alanine. Here is the method:
as §1

The target of data set [5] is T3, SLC1A4. The data set is described as above. The class given is cell-based. The note with it: 3 µM BPOHP, 1 mM L-alanine. Here is the method: as §1
The target of data set [6] is T4, SLC1A4 (hASCT1) (Homo sapiens, UniProt P43007).
T4 construct: expressed in transfected cells; host or cells: Xenopus laevis oocytes (cRNA injection)
T4 sequence (P43007 1-532): T3 sequence (P43007 1-532)
The experiment in a line: TEVC substrate-induced SCN- anion currents in Xenopus oocytes. The data set is classed as cell-based. On the procedure:
(§6) Additionally, 4-HP applied at 1 mM was used to assess activity at the glutamate transporters SLC1A3 or SLC1A1.
as §1, §4, §2

The target in data set [7] is T5, SLC1A5 (mASCT2) (Mus musculus, UniProt P51912).
T5 construct: expressed in transfected cells; host or cells: Xenopus laevis oocytes (cRNA injection)
T5 sequence (P51912 1-553): T1 sequence (P51912 1-553)
The description is as above. The class given is cell-based. On the procedure:
as §6, §1, §4, §2

Substrate in data set [8]: NC(=O)CC[C@H](N)C(=O)O
Described as above. The class given is cell-based, mouse. The note with it: other: SLC1A5; substrate activated anion currents, TEVC −30 mV, 50 mM NaSCN, Michaelis-Menten fit.

Substrate in data set [9]: O=C(O)[C@H]1NCC[C@@H]1O
Described as above. The data set is classed as cell-based, mouse. The note with it: other: SLC1A5; substrate activated anion currents, TEVC −30 mV, 50 mM NaSCN, Michaelis-Menten fit.

Substrate in data set [10]: O=C(O)[C@@H]1C[C@@H](O)CN1
The data set is described as above. The class given is cell-based, mouse. The note with it: other: SLC1A5; substrate activated anion currents, TEVC −30 mV, 50 mM NaSCN, Michaelis-Menten fit.

Substrate in data set [11]: O=C(O)[C@H]1NCC[C@@H]1O
The data set is described as above. The data set is classed as cell-based, human. The note with it: other: SLC1A4; substrate activated anion currents, TEVC −30 mV, 50 mM NaSCN, Michaelis-Menten fit.

Substrate in data set [12]: O=C(O)[C@@H]1C[C@@H](O)CN1
The data set is described as above. The class given is cell-based, human. The settings on record: other: SLC1A4; substrate activated anion currents, TEVC −30 mV, 50 mM NaSCN, Michaelis-Menten fit.

Substrate in data set [13]: C[C@H](N)C(=O)O
Kind of data set: cells, lysate or membranes. The note with it: other: SLC1A4; substrate activated anion currents, TEVC −30 mV, 50 mM NaSCN, Michaelis-Menten fit.

Setting [14] is: mSLC1A5, from dose–response of blocked anion conductance, compounds tested only once without standard error, read-out: SLC1A5 Ki.
Where [15] appears, read: from dose–response of blocked anion conductance, compounds tested only once without standard error, read-out: SLC1A4 Ki.
[16] abbreviates: from dose–response of blocked anion conductance, compounds tested only once without standard error.

Usually IC50 stands for the concentration that gives 50% inhibition. On to `O=C(O)[C@H]1NCC[C@@H]1O` [3-HP, trans-3-hydroxy-L-proline], for which the IC50 in data set [1] was determined as 39 µM.

By Ki is commonly meant the dissociation constant of the complex between target and ligand, obtained from inhibition or displacement. `CC1CNC(C(=O)O)C1O` [10a, trans-3-hydroxy-cis-4-methyl-L-proline]: the “block of anion leak conductance / inhibition” value in data set [2] (SLC1A5) and in [3] (SLC1A4) was “no inhibition of transport” in each case. For the same molecule, the Ki in [2] (setting [14]) came out at 1150 ± 283 µM; in data set [3] (setting [15]) it was 1050 ± 110 µM.

For `CC1C(O)CNC1C(=O)O` (stereo not drawn) [10b], the Ki in data set [2] (setting [14]) was determined as 922 ± 316 µM; in data set [3] (setting [15]), 564 ± 149 µM.

As to `O=C(O)C1NCC(c2ccccc2)C1O` (stereo not drawn) [10c], the Ki in [2] (setting [14]) and in data set [3] (setting [15]) was about 600 µM throughout.

For `O=C(O)C1NCC(O)C1c1ccccc1` [10d, cis-3-phenyl-4-trans-hydroxy-L-proline], the Ki was 1130 ± 318 µM in data set [2] (setting [14]) and 332 ± 74 µM in [3] (setting [15]).

Consider `O=C(O)C1NCC(Oc2ccccc2)C1O` (stereo not drawn) [12a], for which the Ki in data set [2] (setting [14]) came to 141 ± 20 µM; in [3] (setting [15]) it was 150 ± 43 µM.

For the molecule `O=C(O)C1NCC(O)C1Oc1ccccc1` (stereo not drawn) [12b], the Ki in data set [2] (setting [14]) is 502 ± 110 µM; in data set [3] (setting [15]), 594 ± 191 µM.

Take `O=C(O)C1NCC(Oc2ccccc2)C1O` [12c, (2S,3R,4S)-3-hydroxy-4-phenoxypyrrolidin-2-carboxylate]: the Ki in data set [2] (setting [14]) and in data set [3] (setting [15]) was about 150 µM in each case.

As for `CC(C)O[C@@H]1CN[C@H](C(=O)O)[C@H]1O` [14b, trans-3-hydroxy-cis-4-isopropoxy-L-proline], the “block of anion leak conductance / inhibition” value in [2] (SLC1A5) and in [3] (SLC1A4) was “block the anion conductance” in each case.

For `O=C(O)[C@H]1NC[C@@H](OCc2ccccc2)[C@@H]1O` [14c], the “block of anion leak conductance / inhibition” value in [2] (SLC1A5) and in data set [3] (SLC1A4) was “block the anion conductance” in each case. The “fold higher affinity than 12a” value in [2] (SLC1A5) and in [3] (SLC1A4) was ~ 6 fold in each case. In addition, the Ki in data set [2] (SLC1A5, read-out: Ki) is under 100 µM; in data set [3] (SLC1A4, read-out: Ki) it was under 100 µM.

Regarding `CO[C@H]1CN[C@H](C(=O)O)[C@@H]1O` [17a], the Ki was over 500 µM in data set [2] (SLC1A5, read-out: Ki) and over 500 µM in data set [3] (SLC1A4, read-out: Ki).

Regarding `CC(C)O[C@H]1CN[C@H](C(=O)O)[C@@H]1O` [17b], the Ki was about 400 µM in data set [2] (setting [14]) and 505 ± 105 µM in data set [3] (setting [15]).

As to `O=C(O)[C@H]1NC[C@H](OCc2ccccc2)[C@H]1O` [17c, cis-3-hydroxy-trans-4-benzyloxy-L-proline], the Ki in data set [2] (SLC1A5, read-out: Ki) is over 500 µM; in data set [3] (SLC1A4, read-out: Ki), over 500 µM.

Regarding `C[C@H](N)C(=O)O` [L-Ala, L-alanine, reference compound], the “[3H]L-alanine exchange” value in data set [4] and in data set [5] was “induces exchange” each time.

As to `O=C(O)[C@@H]1C[C@H](O)CN1` [compound 1, cis-4-hydroxy-L-proline, reference compound], the “concentration at which leak anion current is blocked” value in [2] (SLC1A5 (transporter not given)) and in data set [3] (SLC1A4 (transporter not given)) was “above 500 µM” in each case. For the same molecule, the “substrate currents” value in [6] and in data set [7] was “did not induce detectable substrate currents” throughout.

Regarding `C[C@]1(O)CN[C@H](C(=O)O)C1` [compound 26, cis-4-methyl-trans-4-hydroxy-L-proline], the “SLC1A4 Ki (µM)” value in data set [3] (setting [16]) is given as “No Block”.

On to `C[C@@]1(O)CN[C@H](C(=O)O)C1` [compound 27, cis-4-hydroxy-trans-4-methyl-L-proline], for which the “SLC1A4 Ki (µM)” value in data set [3] (setting [16]) is “No Block”.

B1: SLC1A5 (mASCT2) (Mus musculus) (protein)
chain: T1 sequence (P51912 1-553)
notes: expressed in transfected cells; host or cells: Xenopus laevis oocytes (cRNA injection)
What is called Km is the concentration of substrate that gives half-maximal velocity. For the molecule B1, the figures for the Km in data set [8], in data set [9] and in data set [10] were 47.4 ± 4.6 µM, 28.6 ± 6.4 µM and 76.3 ± 11.0 µM, respectively.

B2: SLC1A4 (hASCT1) (Homo sapiens) (protein)
chain: T3 sequence (P43007 1-532)
notes: as for B1
For B2, the Km in data set [11] is 13.5 ± 1.8 µM; in [12], 17.1 ± 0.8 µM; in data set [13] it was 40.0 ± 1.8 µM and 40.3 µM.
